PubChem BioAssay AID1259407 (Chemical Carcinogenesis Research Information System (CCRIS), 2018)
Active and inactive are the calls of the source. The rule behind the calls is not given here.

Test system: CCRIS mutagenicity, Ames/micronucleus/aberration tests
Experiment: CCRIS mutagenicity studies
[1] = Test System: AMES SALMONELLA TYPHIMURIUM, Strain/Indicator: TA98, Metabolic Activation: NONE, Method: STANDARD PLATE
[2] = Test System: AMES SALMONELLA TYPHIMURIUM, Strain/Indicator: TA98, Metabolic Activation: RAT, LIVER, S-9, AROCLOR 1254, Method: STANDARD PLATE
[3] = Test System: AMES SALMONELLA TYPHIMURIUM, Strain/Indicator: TA100, Metabolic Activation: NONE, Method: STANDARD PLATE
[4] = Test System: AMES SALMONELLA TYPHIMURIUM, Strain/Indicator: TA100, Metabolic Activation: RAT, LIVER, S-9, AROCLOR 1254, Method: STANDARD PLATE
[5] = Test System: AMES SALMONELLA TYPHIMURIUM, Strain/Indicator: TA1535, Metabolic Activation: HAMSTER, LIVER, S-9, AROCLOR 1254, Method: STANDARD PLATE
[6] = Test System: AMES SALMONELLA TYPHIMURIUM, Strain/Indicator: TA1535, Metabolic Activation: NONE, Method: STANDARD PLATE
[7] = Test System: AMES SALMONELLA TYPHIMURIUM, Strain/Indicator: TA1535, Metabolic Activation: RAT, LIVER, S-9, AROCLOR 1254, Method: STANDARD PLATE
[8] = Test System: AMES SALMONELLA TYPHIMURIUM, Strain/Indicator: TA1537, Metabolic Activation: NONE, Method: STANDARD PLATE
[9] = Test System: AMES SALMONELLA TYPHIMURIUM, Strain/Indicator: TA1537, Metabolic Activation: RAT, LIVER, S-9, AROCLOR 1254, Method: STANDARD PLATE
[10] = Test System: AMES SALMONELLA TYPHIMURIUM, Strain/Indicator: TA1538, Metabolic Activation: NONE, Method: STANDARD PLATE
[11] = Test System: AMES SALMONELLA TYPHIMURIUM, Strain/Indicator: TA1538, Metabolic Activation: RAT, LIVER, S-9, AROCLOR 1254, Method: STANDARD PLATE
[12] = Test System: AMES SALMONELLA TYPHIMURIUM, Strain/Indicator: TA98, Metabolic Activation: NONE, Method: PREINCUBATION
[13] = Test System: AMES SALMONELLA TYPHIMURIUM, Strain/Indicator: TA100, Metabolic Activation: NONE, Method: PREINCUBATION

Cc1c(C(=O)O)c(O)cc2c1C(=O)c1c(O)c([C@@H]3O[C@H](CO)[C@@H](O)[C@H](O)[C@H]3O)c(O)c(O)c1C2=O
mutagenic call (Test System: AMES SALMONELLA TYPHIMURIUM, Strain/Indicator: TA98, Metabolic Activation: HAMSTER, LIVER, S-9, AROCLOR 1254, Method: STANDARD PLATE): inactive; negative | mutagenic call (Test System: AMES SALMONELLA TYPHIMURIUM, Strain/Indicator: TA98, Metabolic Activation: NONE): inactive; negative | mutagenic call [1]: inactive; negative | mutagenic call (Test System: AMES SALMONELLA TYPHIMURIUM, Strain/Indicator: TA98, Metabolic Activation: RAT, LIVER, S-9, AROCLOR 1254 (10 OR 30%)): inactive; negative | mutagenic call [2]: inactive; negative | mutagenic call (Test System: AMES SALMONELLA TYPHIMURIUM, Strain/Indicator: TA100, Metabolic Activation: HAMSTER, LIVER, S-9, AROCLOR 1254, Method: STANDARD PLATE): inactive; negative | mutagenic call (Test System: AMES SALMONELLA TYPHIMURIUM, Strain/Indicator: TA100, Metabolic Activation: NONE): inactive; negative | mutagenic call [3]: inactive; negative | mutagenic call (Test System: AMES SALMONELLA TYPHIMURIUM, Strain/Indicator: TA100, Metabolic Activation: RAT, LIVER, S-9, AROCLOR 1254 (10%)): inactive; negative | mutagenic call (Test System: AMES SALMONELLA TYPHIMURIUM, Strain/Indicator: TA100, Metabolic Activation: RAT, LIVER, S-9, AROCLOR 1254 (10 OR 30%)): inactive; negative | mutagenic call [4]: inactive; negative | mutagenic call [5]: inactive; negative | mutagenic call (Test System: AMES SALMONELLA TYPHIMURIUM, Strain/Indicator: TA1535, Metabolic Activation: NONE): inactive; negative | mutagenic call [6]: inactive; negative | mutagenic call (Test System: AMES SALMONELLA TYPHIMURIUM, Strain/Indicator: TA1535, Metabolic Activation: RAT, LIVER, S-9, AROCLOR 1254 (10 OR 30%)): inactive; negative | mutagenic call [7]: inactive; negative | mutagenic call (Test System: AMES SALMONELLA TYPHIMURIUM, Strain/Indicator: TA1537, Metabolic Activation: HAMSTER, LIVER, S-9, AROCLOR 1254, Method: STANDARD PLATE): inactive; negative | mutagenic call (Test System: AMES SALMONELLA TYPHIMURIUM, Strain/Indicator: TA1537, Metabolic Activation: NONE): inactive; negative | mutagenic call [8]: inactive; negative | mutagenic call (Test System: AMES SALMONELLA TYPHIMURIUM, Strain/Indicator: TA1537, Metabolic Activation: RAT, LIVER, S-9, AROCLOR 1254 (10 OR 30%)): inactive; negative | mutagenic call [9]: inactive; negative | mutagenic call (Test System: AMES SALMONELLA TYPHIMURIUM, Strain/Indicator: TA1538, Metabolic Activation: HAMSTER, LIVER, S-9, AROCLOR 1254, Method: STANDARD PLATE): inactive; negative | mutagenic call [10]: inactive; negative | mutagenic call [11]: inactive; negative | mutagenic call (Test System: MOUSE LYMPHOMA, Strain/Indicator: L5178Y (TK+/TK-), Metabolic Activation: NONE, Method: SUSPENSION/PLATE): active; positive. reevaluation of results: positive | mutagenic call (Test System: MOUSE LYMPHOMA, Strain/Indicator: L5178Y (TK+/TK-), Metabolic Activation: RAT, LIVER, S-9, AROCLOR 1254, Method: SUSPENSION/PLATE): active; positive. reevaluation of results: positive | mutagenic call (Test System: UDS RODENT HEPATOCYTES, Strain/Indicator: THY INCORP, Metabolic Activation: NONE, Method: AUTORADIOGRAPHY): inactive; negative

O=[N+]([O-])c1cc(C(F)(F)F)cc([N+](=O)[O-])c1O
mutagenic call [1]: inactive; negative | mutagenic call [2]: inactive; negative | mutagenic call [3]: inactive; negative | mutagenic call [4]: inactive; negative | mutagenic call [6]: inactive; negative | mutagenic call [7]: inactive; negative | mutagenic call [8]: inactive; negative | mutagenic call [9]: inactive; negative | mutagenic call [10]: inactive; negative | mutagenic call [11]: inactive; negative

O[C@@H]1[C@H]2O[C@H]2c2c(cc3ccc4cccc5c6ccccc6c2c3c45)[C@H]1O
mutagenic call (Test System: AMES SALMONELLA TYPHIMURIUM, Strain/Indicator: TA97, Metabolic Activation: NONE, Method: PREINCUBATION (EXPOSURE IN MEDIUM WITH KCL)): active; positive | mutagenic call (Test System: AMES SALMONELLA TYPHIMURIUM, Strain/Indicator: TA97, Metabolic Activation: NONE, Method: PREINCUBATION (EXPOSURE IN MEDIUM WITHOUT KCL)): active; positive | mutagenic call (Test System: AMES SALMONELLA TYPHIMURIUM, Strain/Indicator: TA98, Metabolic Activation: NONE, Method: PREINCUBATION (EXPOSURE IN MEDIUM WITH KCL)): active; positive | mutagenic call (Test System: AMES SALMONELLA TYPHIMURIUM, Strain/Indicator: TA98, Metabolic Activation: NONE, Method: PREINCUBATION (EXPOSURE IN MEDIUM WITHOUT KCL)): active; positive | mutagenic call (Test System: AMES SALMONELLA TYPHIMURIUM, Strain/Indicator: TA100, Metabolic Activation: NONE, Method: PREINCUBATION (EXPOSURE IN MEDIUM WITH KCL)): active; positive | mutagenic call (Test System: AMES SALMONELLA TYPHIMURIUM, Strain/Indicator: TA100, Metabolic Activation: NONE, Method: PREINCUBATION (EXPOSURE IN MEDIUM WITHOUT KCL)): active; positive | mutagenic call (Test System: AMES SALMONELLA TYPHIMURIUM, Strain/Indicator: TA104, Metabolic Activation: NONE, Method: PREINCUBATION (EXPOSURE IN MEDIUM WITH KCL)): active; positive | mutagenic call (Test System: AMES SALMONELLA TYPHIMURIUM, Strain/Indicator: TA104, Metabolic Activation: NONE, Method: PREINCUBATION (EXPOSURE IN MEDIUM WITHOUT KCL)): active; positive | mutagenic call (Test System: CHINESE HAMSTER V-79, Strain/Indicator: V-79/6-THIOGUANINE, Metabolic Activation: NONE): active; positive

CCCCCCCC(=O)CCc1ccc(O)c(OC)c1
mutagenic call [12]: inactive; negative | mutagenic call (Test System: AMES SALMONELLA TYPHIMURIUM, Strain/Indicator: TA98, Metabolic Activation: RAT LIVER S-9, SODIUM PHENOBARBITAL, Method: PREINCUBATION): inactive; negative | mutagenic call [13]: inactive; negative | mutagenic call (Test System: AMES SALMONELLA TYPHIMURIUM, Strain/Indicator: TA100, Metabolic Activation: RAT LIVER S-9, SODIUM PHENOBARBITAL, Method: PREINCUBATION): inactive; negative | mutagenic call (Test System: AMES SALMONELLA TYPHIMURIUM, Strain/Indicator: TA1535, Metabolic Activation: NONE, Method: PREINCUBATION): inactive; negative | mutagenic call (Test System: AMES SALMONELLA TYPHIMURIUM, Strain/Indicator: TA1535, Metabolic Activation: RAT LIVER S-9, SODIUM PHENOBARBITAL, Method: PREINCUBATION): inactive; negative | mutagenic call (Test System: AMES SALMONELLA TYPHIMURIUM, Strain/Indicator: TA1538, Metabolic Activation: NONE, Method: PREINCUBATION): inactive; negative | mutagenic call (Test System: AMES SALMONELLA TYPHIMURIUM, Strain/Indicator: TA1538, Metabolic Activation: RAT LIVER S-9, SODIUM PHENOBARBITAL, Method: PREINCUBATION): inactive; negative

Clc1nncc2cnccc12
mutagenic call [12]: inactive; negative | mutagenic call (Test System: AMES SALMONELLA TYPHIMURIUM, Strain/Indicator: TA98, Metabolic Activation: RAT, LIVER, S-9, PCB, Method: PREINCUBATION): inactive; negative | mutagenic call [13]: inactive; negative | mutagenic call (Test System: AMES SALMONELLA TYPHIMURIUM, Strain/Indicator: TA100, Metabolic Activation: RAT, LIVER, S-9, PCB, Method: PREINCUBATION): inactive; negative

CN(Cc1ccc([N+](=O)[O-])cc1)N=O
mutagenic call [5]: active; positive | mutagenic call [6]: inactive; negative

CC(=O)ON(OCc1ccc(Br)cc1)C(=O)c1ccccc1
mutagenic call [3]: active; positive | mutagenic call (Test System: AMES SALMONELLA TYPHIMURIUM, Strain/Indicator: TA100, Metabolic Activation: RAT, S-9, AROCLOR, Method: STANDARD PLATE): active; positive
